The conditions of the experiment: no combination product.

Excerpt: Development and test of a combination product based on the pharmaceutical Zoloft and a specifically adapted QFM, including life-style improving factors, with a dependent software application • a. Test objectives; improve cardiovascular and diabetes symptoms • b. Main intervention factors; • i. an improved level of physical activity • ii. increased awareness of food intake • iii. an increased well-being based on improved administration of Zoloft • c. Follow-up variables: Weight and HbA1c • d. Period of Time Using the Combination Product: Five Months. • e. Period of time using only the pharmaceutical, i.e. no combination product, prior to the period of using the combination product: Two months • f. Period of time using only the software application, i.e. no combination product, after the period of using the combination product: Two weeks
The used set of questions for the specific QFM, including life-style improving factors, in the combination product based on Zoloft was the following: • Adherence to Zoloft: • The patient was asked to answer a question whether or not he/she had been adherent to Zoloft, and which dose the patient had taken; “I have taken my Zoloft today with the dose 25 mg/50 mg/100 mg/150 mg or 200 mg”. • Physical activity: • The patient was asked initially to set up an individual goal with the purpose of achieving an increased effect. […]

As for `CN[C@H]1CC[C@@H](c2ccc(Cl)c(Cl)c2)c2ccccc21` [Zoloft, Sertralin], under “test period when the patient only was taking Zoloft (two months)”, the HbA1c entry is listed as “remained stable or slightly increased”. Besides, the Weight gained (test period when the patient only was taking Zoloft) was 1-2%.

Source of the values: patent US20150178471A1, “IMPROVED CLINICAL EFFECT OF PHARMACEUTICAL PRODUCTS USING COMMUNICATION TOOL AND LIFE-STYLE FACTORS” (SCIENTIFICMED SWEDEN AB, priority 2012, published 2015).
